17 compounds from patent publication US5576324A, “Quinoline derivatives or salt thereof and remedy for cardiac diseases containing the same” (Kowa Co., Ltd., priority 1992, dated 1996) can be followed below.

The subject of test [1] is Guinea Pig Atrium (left atrium contraction). The test can be described thus: Inotropic action on guinea pig atrium samples. As to conditions: Cavia porcellus, 10^-7 M, 1 Hz, 32° C., read-out: Increment of Contraction of the left atrium. The protocol: Inotropic Action and Action Against Time-dependent Action on Guinea Pig Atrium Samples
Guinea pigs were smashed at the head, and were exsanguinated through a cut in the carotid artery. Their hearts were taken out. From each heart, the right and left atria were obtained. The atria were suspended in Krebs-Henzereit solution at 32° C. through which a gas containing 95% oxygen and 5% carbon dioxide was passed. The tensile strength was measured with a strain gauge, and was amplified and recorded. Beats of right atria were counted using a tachometer, and the counts were regarded as the cardiac rate. Electric pulses (1 Hz, 5 msec) having twice the magnitude of the threshold were applied onto the left atria. The samples were given to […] in an accumulative manner at intervals of 5 minutes.
The results are expressed by the increment of contraction of the left atrium when 10^-7 M of a sample was administered.

Test [2] has as its system Mouse Arrhythmia Induced by Chloroform (ventricular fibrillation). Put plainly: Action on Mouse Arrhythmia Induced by Chloroform. The test is classed as in vivo. The following applies: 100 mg/kg given to mice, 20 min before chloroform. The protocol:
Action on Mouse Arrhythmia Induced by Chloroform
Test compounds (100 mg/kg) were given to mice, and 20 minutes thereafter, the mice were confined in a pot filled with chloroform. Upon respiratory stoppage, the mice were immediately taken out of the pot, and electrocardiodiagram (lead II) was recorded to obtain ventricular tachycardia, ventricular fibrillation, and period until the cardiac arrest.

The subject of test [3] is Blood Flow of a Hind Leg of Anesthetic Dog. The test can be described thus: Action on the Blood Flow of a Hind Leg of Anesthetic Dog. Format: in vivo. As to conditions: Canis lupus familiaris; 100 μg into femoral artery, anesthetized dog; read-out: Increment of Blood Flow. How it is done: Action on the Blood Flow of a Hind Leg of Anesthetic Dog
Adult crossbred dogs were put under anesthesia with pentobarbital-Na (30 mg/kg) by intravenous injection, Heparin was administered to each dog, and an extracorporeal circulation circuit was established in the femoral artery, The blood flow in the hind leg was measured with an electromagnetic hemodromometer placed on the circuit, The samples were administered at a dose of 100 μg into the feromal artery through a rubber tube provided on the circuit.

Structures can show the parent of a compound that is named as a salt.

As for `Cc1cc2c(c3ccc(=O)[nH]c13)OC(CN)C2C` (stereo not drawn) [Example 13, (2RS, 3SR)-2-Aminomethyl-3,5-dimethyl-2,3,6,7-tetrahydrofuro[2,3-f]quinoline-7-one.HCl], the activation at 0.1 µM in test [1] was determined as 31.8%.

In the case of `Cc1cc2c(c3ccc(=O)[nH]c13)OC(C)(CN)C2` (stereo not drawn) [Example 20], the “% Inhibition of ventricular fibrillation” value in test [2] was 100%.

In the case of `Cc1cc2c(c3c1NC(=O)CC3)OC(C)(CN)C2` (stereo not drawn) [Example 21], in test [3], the change in vivo at 0.1 mg is 35.7%.

As to `Cc1cc2c(c3ccc(=O)[nH]c13)OC(C)(CN)C2(C)C` (stereo not drawn) [Example 22], the “% Inhibition of ventricular fibrillation” value in test [2] stood at 90%.

Turning to `NCC1Cc2c(ccc3[nH]c(=O)ccc23)O1` (stereo not drawn) [Example 50, 2-Aminomethyl-1,2,6,7-tetrahydrofuro[3,2-f]quinoline-7-one], the change in vivo at 0.1 mg in test [3] came out at 26.7%. Also, the activation at 0.1 µM in test [1] is 11.1%.

For `CCN(CC)CC1Cc2cc(C)c3c(c2O1)CCC(=O)N3` (stereo not drawn) [Example 77], the “% Inhibition of ventricular fibrillation” value in test [2] is 100%.

Turning to `Cc1cc2c(c3ccc(=O)[nH]c13)OC(CN1CCCCC1)C2` (stereo not drawn) [Example 82], the change in vivo at 0.1 mg in test [3] came out at 31%.

As to `CCCCNCC1Cc2cc(C)c3[nH]c(=O)ccc3c2O1` (stereo not drawn) [Example 94, 2-(n-butylamino)methyl-5-methyl-2,3,6,7-tetrahydrofuro[2,3-f]quinoline-7-one.HCl], in test [2], the “% Inhibition of ventricular fibrillation” value is on record as 100%.

On to `COc1ccc(CCNCC2Cc3cc(C)c4[nH]c(=O)ccc4c3O2)cc1OC` (stereo not drawn) [Example 99], for which, in test [3], the change in vivo at 0.1 mg turned out to be 97%.

On to `CC(=O)OCC1Cc2cc(C)c3[nH]c(=O)ccc3c2O1` (stereo not drawn) [Example 103, 2-Acetoxymethyl-5-methyl-2,3,6,7-tetrahydrofuro-[2,3-f]quinoline-7-one], for which, in test [3], the change in vivo at 0.1 mg was determined as 66.7%. Moreover, in test [1], the activation at 0.1 µM stood at 13.1%.

As for `Cc1cc2c(c3ccc(=O)[nH]c13)OC(CI)C2` (stereo not drawn) [Example 106, 2-Iodomethyl-5-methyl-2,3,6,7-tetrahydrofuro-[2,3-f]quinoline-7-one], the change in vivo at 0.1 mg in test [3] came to 39.5%. For the same compound, the activation at 0.1 µM in test [1] turned out to be 46.8%.

On to `Cc1cc2c(c3ccc(=O)[nH]c13)OC(CF)C2` (stereo not drawn) [Example 107, 2-Fluoromethyl-5-methyl-2,3,6,7-tetrahydrofuro-[2,3-f]quinoline-7-one], for which the change in vivo at 0.1 mg in test [3] was found to be 54.1%.

Turning to `Cc1cc2c(c3c1NC(=O)CC3)OC(CF)C2` (stereo not drawn) [Example 108], the change in vivo at 0.1 mg in test [3] is 54.8%.

Consider `COCC1Cc2cc(C)c3[nH]c(=O)ccc3c2O1` (stereo not drawn) [Example 109], for which the activation at 0.1 µM in test [1] came to 20.3%.

Regarding `Cc1cc2c(c3c1NC(=O)CC3)OC(CNS(C)(=O)=O)C2` (stereo not drawn) [Example 114], the activation at 0.1 µM in test [1] stood at 18.8%.

On to `NCC1Cc2cc(Cl)c3[nH]c(=O)ccc3c2O1` (stereo not drawn) [Example 120, 2-Aminomethyl-5-chloro-2,3,6,7-tetrahydrofuro[2,3-f]quinoline-7-one.HCl], for which the change in vivo at 0.1 mg in test [3] was determined as 110%. Besides, the “% Inhibition of ventricular fibrillation” value in test [2] was determined as 90%.

Regarding `NCC1Cc2cc(Cl)c3c(c2O1)CCC(=O)N3` (stereo not drawn) [Example 121], the “% Inhibition of ventricular fibrillation” value in test [2] amounted to 100%.
